Reference: patent publication US9897592B2, “Methods for identifying arthropod repellents and attractants, and compounds and compositions identified by such methods” (The Regents of the University of California, priority 2013, dated 2018)
Counter-ions that a name gives are not always drawn. Like-named read-outs stand apart in the source and are kept apart here.

Legend:
CO2 receptor neuron = experiment: Amines: inhibition of CO2 receptor neuron activity; assay type: cell-based; parameters: % Inhibition: concentration or dose not given beside the values
cpA neuron = experiment: Single-sensillum recording: activation of cpA neuron by odorants; assay type: cell-based, Aedes aegypti; details: for Activation (spikes s^−1): A. aegypti cpA, 0.5-s pulses, odorants 10^−2 in paraffin oil or water, solvent response subtracted; for Activation (spikes s−1): cpA neuron, 20 compounds from the top 200 SVM ligand predictions, negative values = inhibition, N = 4
Method: FIG. 3b depicts representative traces and mean responses of the A. aegypti cpA neuron to 0.5-s pulses of 138 predicted compounds screened using single-sensillum recordings, in which odorants were diluted to 10^−2 in paraffin oil or water, and responses to solvent have been subtracted, n=2-6, and error bars are s.d.
FIG. 5f is a bar graph illustrating the mean responses of the A. aegypti cpA neuron to 0.5-s pulses of 22 newly predicted compounds screened as in FIG. 3b, where salmon bars correspond to odorants found in human odor, odorants were diluted to 10^−2 in paraffin oil or water, and responses to solvent have been subtracted, and n=2-5.
Adult female A. aegypti (Linnaeus 1762) (Rockefeller strain) A. gambiae sensu stricto Giles 1902 (G3 strain), or C. quinquefasciatus Say 1823 were tested 3-12 days post-emergence with single-sensillum extracellular recordings. Chemicals were obtained from Sigma-Aldrich at the highest purity (typically >99%) and were dissolved in paraffin oil or water. […] Response to clean beads was subtracted from the results reported. Only sensilla with cpA activity of <20 spikes s^−1 to negative control were considered for analysis.
CpA-off and sham treated mosquitoes were pre-treated for 3 min in an upended 1 L glass dish in which 100 μl of fresh butyryl chloride (1%) or paraffin oil was allowed to vaporize for 10-20 min. The odor delivery system for different screens is shown in FIG. 7b; solvent responses during the same recording session were subtracted. Inhibition screen was tested. For the ultra-prolonged activator the 3-s stimulus was delivered from a 10 ml disposable pipette using a CS-55 stimulus controller (Syntech), CO2 was delivered, and responses to subsequent odor stimuli were calculated by subtracting baseline activity 1 s prior to each stimulus. When responses to repeated pulses of cyclopentanone and CO2 were compared, baseline activity between seconds 5 and 6 following each stimulus was subtracted. Spike counting was done manually or with Igor Pro6.2 (Wavemetrics) with the Neuromatic v2.00 macro (by Jason Rothman), and peak-to-peak spike amplitudes for FIG. 8 were analysed in Clampfit 10.3 (Molecular Devices).
From the large list of cpA receptor ligands predicted from Example 3 above, 138 compounds were selected based on desirable criteria for application such as smell, presence in natural sources, human safety profile, and cost to procure. These compounds were tested individually using single-sensillum electrophysiology on the cp sensillum of female A. aegypti, according to the procedure described in Example 1 above.

[1] = inhibition of CO2 receptor neuron activity by amines

| SMILES | Activation (spikes s^−1) (cpA neuron) | other results |
| --- | --- | --- |
| CN1CCCC1 [1-methylpyrrolidine] | – | % Inhibition (CO2 receptor neuron; [1]): 100% |
| CCCCCCN [hexan-1-amine] | – | % Inhibition (CO2 receptor neuron; [1]): 86.61% |
| CNC [N-methylmethanamine] | – | % Inhibition (CO2 receptor neuron): 100% |
| CC(=O)C1=NCCS1 [1-(4,5-dihydro-1,3-thiazol-2-yl)ethanone] | 8.0 | – |
| C=C(C)C(=C)C [2,3-dimethylbuta-1,3-diene] | 10.0 | – |
| C=CC(CCCCC)OC(=O)CCC (centres unmarked) [oct-1-en-3-yl butanoate] | 0.0 | – |
| O=COC/C=C/c1ccccc1 [[(E)-3-phenylprop-2-enyl] formate] | 3.0 | – |
| Cc1csc(C)n1 [2,4-dimethyl-1,3-thiazole] | – | Activation (spikes s−1) (cpA neuron): 39.0 spikes s−1 |
| CCc1nccnc1CC [2,3-diethylpyrazine] | −15.5 | – |
| CSc1ccoc1C [2-methyl-3-methylsulfanylfuran] | 12.0 | – |
| C/C=C(\C)C(=O)OCCc1ccccc1 [2-phenylethyl (E)-2-methylbut-2-enoate] | 2.5 | – |
| CC/C=C\CCO [(Z)-hex-3-en-1-ol] | 2.5 | – |
| Cc1cncc(C)c1 [3,5-dimethylpyridine] | 7.5 | – |
| CCCC1OCC(C)O1 (centres unmarked) [4-methyl-2-propyl-1,3-dioxolane] | 13.0 | – |
| CC(C)CCO [3-methylbutan-1-ol] | 51.8 | – |
| CCC(C)C=O (centres unmarked) [2-methylbutanal] | 33.5 | – |
| CCC=C(C)C=O [2-methylpent-2-enal] | 36.5 | – |
| CC(C)=CCC/C(C)=C/C(=O)O [(2E)-3,7-dimethylocta-2,6-dienoic acid] | 3.0 | – |
| O=C(O)[C@@H]1CCCN1 [(2S)-pyrrolidine-2-carboxylic acid] | 3.5 | – |
| COC(=O)C(C)C [methyl 2-methylpropanoate] | 49.4 | – |
| CC1CCCC1 [methylcyclopentane] | – | Activation (spikes s−1) (cpA neuron): 16.3 spikes s−1 |
| C=C(C)CCO [3-methylbut-3-en-1-ol] | – | Activation (spikes s−1) (cpA neuron): 64.3 spikes s−1 |
| CC(C)CC#N [3-methylbutanenitrile] | 75.8 | – |

| SMILES | Activation (spikes s^−1) (cpA neuron) | other results |
| --- | --- | --- |
| OCCCCCc1ccccc1 [5-phenylpentan-1-ol] | −3.0 | – |
| O=C1CCCCN1 [piperidin-2-one] | 0.0 | – |
| NCCCNCCCCNCCCN | – | % Inhibition (CO2 receptor neuron): 94.81% |
| C=CCOC(=O)CC [prop-2-enyl propanoate] | 49.5 | – |
| CCCOC(C)=O [propyl acetate] | 52.6 | – |
| C/C=C\C(=O)OCC(C)C [2-methylpropyl (Z)-but-2-enoate] | −5.0 | – |
| CCc1nccnc1OC [2-ethyl-3-methoxypyrazine] | −17.5 | – |
| CC(=O)C(C)O (centres unmarked) [3-hydroxybutan-2-one] | 0.5 | – |
| Cc1ccccc1C=O [2-methylbenzaldehyde] | 19.0 | – |
| CC(=O)CCc1ccccc1 [4-phenylbutan-2-one] | 0.5 | – |
| CC(C)=CCCC(C)CCO (centres unmarked) [3,7-dimethyloct-6-en-1-ol] | 1.5 | – |
| CCC(C)C(N)C(=O)O (centres unmarked) [2-amino-3-methylpentanoic acid] | −2.5 | – |
| CCCC(=O)OCCc1ccccc1 [2-phenylethyl butanoate] | −5.5 | – |
| c1ccsc1 [Thiophene] | 116.6 | – |
| NCCC(=O)O [3-aminopropanoic acid] | 8.0 | – |
| C=CCCC [1-pentene] | – | Activation (spikes s−1) (cpA neuron): 10.3 spikes s−1 |
| COC=O [methyl formate] | – | Activation (spikes s−1) (cpA neuron): 59.3 spikes s−1 |
| C/C=C(\C)C(=O)O [(E)-2-methylbut-2-enoic acid] | 2.5 | – |
| CC1CCCO1 (centres unmarked) [2-methyloxolane] | – | Activation (spikes s−1) (cpA neuron): 82.5 spikes s−1 |
| Cc1cncc(C)n1 [2,6-dimethylpyrazine] | 14.8 | – |
| CC1(O)CCOC(=O)C1 (centres unmarked) [4-hydroxy-4-methyloxan-2-one] | −1.0 | – |
| CCCCCN [pentan-1-amine] | – | % Inhibition (CO2 receptor neuron; [1]): 100% |
| CCc1nccnc1C [2-ethyl-3-methylpyrazine] | −7.5 | – |

| SMILES | Activation (spikes s^−1) (cpA neuron) | other results |
| --- | --- | --- |
| Sc1cccs1 [thiophene-2-thiol] | – | Activation (spikes s−1) (cpA neuron): −35.5 spikes s−1 |
| CC(C)=CCC/C(C)=C/COC=O [[(2E)-3,7-dimethylocta-2,6-dienyl] formate] | −2.5 | – |
| CCC(=O)OCCc1ccccc1 [2-phenylethyl propanoate] | −1.5 | – |
| O=C1CCCC(=O)C1 [cyclohexane-1,3-dione] | 1.5 | – |
| Cc1ccco1 [2-methylfuran] | 48.0 | – |
| CCCC(O)CCC [heptan-4-ol] | −3.0 | – |
| NCCCCNCCCN [N-(3-aminopropyl)-1,4-butanediamine] | – | % Inhibition (CO2 receptor neuron; [1]): 92.25% |
| C=C(C)C(=O)OC [methyl 2-methylprop-2-enoate] | 45.0 | – |
| CC(=O)OCC1CCCO1 (centres unmarked) [oxolan-2-ylmethyl acetate] | 10.0 | – |
| CCCCCC/C=C\CO [(Z)-non-2-en-1-ol] | −1.5 | – |
| OCCCc1ccccc1 [3-phenylpropan-1-ol] | −3.0 | – |
| CC(C)=CCCC(C)CC(=O)O (centres unmarked) [3,7-dimethyloct-6-enoic acid] | 6.0 | – |
| CCC(C)O (centres unmarked) [butan-2-ol] | – | Activation (spikes s−1) (cpA neuron): 63.8 spikes s−1 |
| CCc1cnccn1 [2-ethylpyrazine] | 34.5 | – |
| OC1CCCC1 [cyclopentanol] | – | Activation (spikes s−1) (cpA neuron): 49.8 spikes s−1 |
| CCOCc1cnccn1 [2-(ethoxymethyl)pyrazine] | −8.0 | – |
| Cc1ncsc1CCO [2-(4-methyl-1,3-thiazol-5-yl)ethanol] | 4.5 | – |
| CC(C)Cc1cccnc1 [3-(2-methylpropyl)pyridine] | 5.5 | – |
| CC(=O)c1ccncc1 [1-pyridin-4-ylethanone] | 3.5 | – |
| Cc1ccc2ncccc2c1 [6-methylquinoline] | 9.5 | – |
| CC(C)CC=O [3-methylbutanal] | 60.2 | – |
| CC1=CC(=O)CC1 [3-methylcyclopent-2-en-1-one] | 31.0 | – |
